In assay [1] the target is T1, AKT1 WT (Homo sapiens, UniProt P31749).
T1 construct: expressed in transfected cells; host or cells: HEK293
Description: Live cell AKT1 WT target engagement by NanoBRET competitive probe displacement in HEK293 cells. Format: binding. The conditions noted are these: 2 h at 37° C., read-out: AKT1 WT IC50.

In assay [2] the target is T2, AKT2 (Homo sapiens, UniProt P31751).
T2 construct: expressed in transfected cells; host or cells: HEK293
The assay is described as follows: Live cell AKT2 target engagement by NanoBRET competitive probe displacement in HEK293 cells. Format: binding. The settings on record: 2 h at 37° C., read-out: AKT2 IC50.

Setting [3] is: NanoBRET competitive probe displacement, live HEK293 cells.
The mark [4] stands for this setting: NanoBRET live cell target engagement, HEK293 cells.

Like-named read-outs stand apart in the source and are kept apart here.

T2 sequence (P31751 whole entry): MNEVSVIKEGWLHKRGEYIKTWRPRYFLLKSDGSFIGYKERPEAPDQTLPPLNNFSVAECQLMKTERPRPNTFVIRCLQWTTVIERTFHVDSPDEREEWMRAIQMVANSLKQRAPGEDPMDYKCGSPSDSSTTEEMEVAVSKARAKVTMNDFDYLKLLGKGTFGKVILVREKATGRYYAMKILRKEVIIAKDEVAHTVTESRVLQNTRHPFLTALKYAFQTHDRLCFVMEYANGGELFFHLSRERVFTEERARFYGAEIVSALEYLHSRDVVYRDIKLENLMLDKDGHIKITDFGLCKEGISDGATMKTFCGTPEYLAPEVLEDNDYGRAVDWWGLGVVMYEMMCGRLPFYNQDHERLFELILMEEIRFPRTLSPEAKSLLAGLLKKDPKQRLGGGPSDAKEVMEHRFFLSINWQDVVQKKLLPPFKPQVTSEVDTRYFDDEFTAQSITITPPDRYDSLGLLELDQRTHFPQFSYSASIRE
T1 sequence (P31749 whole entry): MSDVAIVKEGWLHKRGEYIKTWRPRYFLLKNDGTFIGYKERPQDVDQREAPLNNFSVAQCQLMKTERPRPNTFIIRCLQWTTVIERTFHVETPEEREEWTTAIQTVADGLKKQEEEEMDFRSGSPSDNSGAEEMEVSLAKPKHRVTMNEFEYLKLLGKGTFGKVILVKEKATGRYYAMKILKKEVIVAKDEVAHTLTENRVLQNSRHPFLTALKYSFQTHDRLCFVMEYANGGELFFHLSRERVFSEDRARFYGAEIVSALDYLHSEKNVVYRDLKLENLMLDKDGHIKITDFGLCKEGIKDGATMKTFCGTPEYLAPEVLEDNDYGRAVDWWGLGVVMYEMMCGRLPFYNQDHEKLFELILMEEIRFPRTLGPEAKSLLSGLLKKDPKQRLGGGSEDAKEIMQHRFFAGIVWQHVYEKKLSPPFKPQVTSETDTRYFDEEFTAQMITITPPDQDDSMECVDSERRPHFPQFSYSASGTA

`CN(C)C(=O)c1cc(C(=O)N[C@H]2CCc3cc(-n4c(-c5cccnc5N)nc5ccc(-n6cccn6)nc54)ccc32)ccc1O` [Compound 414]: the IC50 in assay [1] (setting [3]) is 26.1 nM; in assay [2] (setting [3]), 562 nM.
Take `CC(=O)N1CCC(N[C@H]2CCc3cc(-n4c(-c5cccnc5N)nc5ccc(-n6cccn6)nc54)ccc32)CC1` [Compound 109]: the results for the IC50 in assay [1] (setting [4]) and in assay [2] (setting [4]) were 257 nM and 5830 nM, respectively.
As for `Nc1ncccc1-c1nc2ccc(-n3cccn3)nc2n1-c1ccc2c(c1)CC[C@@H]2NC(=O)c1ccc(O)nc1` [Compound 297], the IC50 was 163 nM in assay [1] (setting [4]) and 4220 nM in assay [2] (setting [4]).
On to `Nc1ncccc1-c1nc2ccc(-n3cccn3)nc2n1-c1ccc2c(c1)CC[C@@H]2NC1CCN(C(=O)C(F)F)CC1` [Compound 475], for which the IC50 in assay [1] (setting [3]) turned out to be 130 nM; in assay [2] (setting [3]), 2780 nM.
On to `Cc1ccc(C(=O)N[C@H]2CCc3cc(-n4c(-c5cccnc5N)nc5ccc(C#Cc6ncco6)nc54)ccc32)cn1` [Compound 341], for which the IC50 is 391 nM in assay [1] (setting [4]) and 2850 nM in assay [2] (setting [4]).
Consider `Nc1ncccc1-c1nc2ccc(-n3nccn3)nc2n1-c1ccc2c(c1)CC[C@@H]2NC(=O)c1cc(F)c2[nH]ncc2c1` [Compound 383], for which the IC50 in assay [1] (setting [4]) worked out at 12.8 nM; in assay [2] (setting [4]) it was 214 nM.
The corresponding values for `Nc1ncccc1-c1nc2ccc(-n3cccn3)nc2n1-c1ccc2c(c1)CC[C@@H]2n1ccc(=O)cc1` [Compound 83, (S)-1-(5-(2-(2-aminopyridin-3-yl)-5-(1H-pyrazol-1-yl)-3H-imidazo[4,5-b]pyridin-3-yl)-2,3-dihydro-1H-inden-1-yl)pyridin-4(1H)-one] are 139 nM and 867 nM.
For `COc1cc(F)cc(C(=O)N[C@H]2CCc3cc(-n4c(-c5cccnc5N)nc5ccc(-n6cccn6)nc54)ccc32)c1` [Compound 334], the concentration for half-maximal inhibition (IC50) stood at 8.16 nM in assay [1] (setting [4]) and 21.4 nM in assay [2] (setting [4]).
With `Nc1ncccc1-c1nc2ccc(-n3cccn3)nc2n1-c1ccc2c(c1)CC[C@@H]2NC(=O)c1cnc2c(c1)CCC2` [Compound 94], the figures for the IC50 in assay [1] (setting [4]) and in assay [2] (setting [4]) were 7.33 nM and 18.8 nM, respectively.
Consider `Nc1ncccc1-c1nc2ccc(-n3cccn3)nc2n1-c1ccc2c(c1)CC[C@@H]2NC(=O)c1cnc2[nH]ncc2c1` [Compound 192], for which the IC50 was 9.54 nM in assay [1] (setting [4]) and 86.4 nM in assay [2] (setting [4]).
On the same counts, the results for `Nc1ncccc1-c1nc2ccc(-n3cccn3)nc2n1-c1ccc2c(c1)CC[C@@H]2NC(=O)c1cccnc1F` [Compound 127] are 12.6 nM and 126 nM.
For `COc1ncn(-c2ccc3nc(-c4cccnc4N)n(-c4ccc5c(c4)CC[C@@H]5NC(=O)c4ccc(C)nc4)c3n2)n1` [Compound 456, (S)—N-(5-(2-(2-aminopyridin-3-yl)-5-(3-methoxy-1H-1,2,4-triazol-1-yl)-3H-imidazo[4,5-b]pyridin-3-yl)-2,3-dihydro-1H-inden-1-yl)-6-methylnicotinamide], the IC50 is 52.3 nM in assay [1] (setting [3]) and 715 nM in assay [2] (setting [3]).
Take `Cc1csc(-c2ccc3nc(-c4cccnc4N)n(-c4ccc5c(c4)CC[C@@H]5NC(=O)c4nccnc4C)c3n2)n1` [Compound 302]: the figures for the IC50 in assay [1] (setting [4]) and in assay [2] (setting [4]) were 20.9 nM and 456 nM, respectively.
On to `CN(C)Cc1ncccc1C(=O)N[C@H]1CCc2cc(-n3c(-c4cccnc4N)nc4ccc(-n5cccn5)nc43)ccc21` [Compound 104], for which the IC50 is 317 nM in assay [1] (setting [4]) and > 10000 nM in assay [2] (setting [4]).
Regarding `Nc1ncccc1-c1nc2ccc(C#CC3CC3)nc2n1-c1ccc2c(c1)CC[C@@H]2NC(=O)c1ccc(C(F)F)nc1` [Compound 406], the values for the IC50 in assay [1] (setting [3]) and in assay [2] (setting [3]) were 20.4 nM and 903 nM, respectively.
For the molecule `CN(C(=O)N[C@H]1CCc2cc(-n3c(-c4cccnc4N)nc4ccc(-n5cccn5)nc43)ccc21)c1ccccc1` [Compound 132, (S)-3-(5-(2-(2-aminopyridin-3-yl)-5-(1H-pyrazol-1-yl)-3H-imidazo[4,5-b]pyridin-3-yl)-2,3-dihydro-1H-inden-1-yl)-1-methyl-1-phenylurea], the values for the IC50 in assay [1] (setting [4]) and in assay [2] (setting [4]) were > 1000 nM and 2550 nM, respectively.

The values are drawn from patent US12624034B2, “Non-covalent modifiers of AKT1 and uses thereof” (Terremoto Biosciences, Inc., priority 2023, dated 2026).
